Data as given in ChEMBL document CHEMBL5528031, “Synthesis and antitumor activity of cyclopentane-fused anthraquinone derivatives” (Eur J Med Chem, 2024).
pIC50, pKd: −log10 of the molar value. ≈ marks a conversion by molar mass, not a printed value. Calls of active or inactive are those of the source. No cut-off for these calls is given here.

Assays:
K562 = test: Antiproliferative activity against human K562 cells assessed as inhibition of cell growth incubated for 72 hrs by MTT assay; format: functional, cell-based; settings: K562, 72 h
HL-60 = test: Antiproliferative activity against human HL-60 cells assessed as inhibition of cell growth incubated for 72 hrs by MTT assay; format: functional, cell-based; settings: HL-60, 72 h
DNA [1] = test: Binding affinity to pBR322 plasmid DNA (unknown origin) assessed as DNA intercalation by measuring reduction in electrophoretic shift incubated for 30 mins by EtBr staining based agarose gel electrophoresis; format: nucleic-acid assay; settings: dose 5-20 µM
[2] = Antiproliferative activity against human DND41 cells assessed as inhibition of cell growth incubated for 72 hrs by MTT assay; format: functional, cell-based; settings: DND41, 72 h
[3] = Solubility of compound in deionized water at pH 6; format: physicochemical
[4] = Drug localization in mitochondria of human HCT-116 cells assessed as appearance of yellow color at 2 uM incubated for 9 hrs by MitoTracker deep red staining based fluorescence microscopic analysis; format: ADME; settings: hct-116, 9 h
[5] = Octanol/water partition coefficient, logP of compound at pH 7.4 by HPLC analysis; format: physicochemical
[6] = Cytotoxicity against hFB-hTERT6 cells assessed as inhibition of cell growth incubated for 72 hrs by MTT assay; format: toxicity, cell-based; settings: human
[7] = Drug uptake in human HCT-116 cells assessed as increase in intracellular accumulation at 2 uM measured after 24 hrs by flow cytometry analysis; format: ADME, cell-based; settings: hct-116, 24 h
LN-229 = test: Antiproliferative activity against human LN-229 cells assessed as inhibition of cell growth incubated for 72 hrs by MTT assay; format: functional, cell-based; settings: LN-229, 72 h
HCT-116 [8] = test: Antiproliferative activity against human HCT-116 cells assessed as inhibition of cell growth incubated for 72 hrs by MTT assay; format: functional, cell-based; settings: HCT-116, 72 h
HCT-116 [9] = test: Induction of oxidative stress in human HCT-116 cells assessed as increase in ROS-positive cells at 10 uM incubated for 2 hrs by Abcam-ROS deep red staining based fluorescence microscopic analysis; format: functional, cell-based
Calf thymus DNA [10] = test: Binding affinity to calf thymus DNA assessed as dissociation constant at 10 uM by fluorescence spectroscopy analysis; format: nucleic-acid assay, Bos taurus
HCT-116 [11] = test: Induction of oxidative stress in human HCT-116 cells assessed as increase in ROS-positive cells at 10 uM incubated for 2 hrs by flow cytometry analysis; format: functional, cell-based
[12] = Antiproliferative activity against multidrug resistant human K562/4 cells expressing P-gp assessed as inhibition of cell growth incubated for 72 hrs by MTT assay; format: functional, cell-based; settings: K562/4, 72 h
[13] = Drug localization in lysosome of human HCT-116 cells assessed as appearance of yellow color at 2 uM incubated for 9 hrs by LysoTracker Green staining based fluorescence microscopic analysis; format: ADME, subcellular; settings: hct-116, 9 h
[14] = target: T1, DNA topoisomerase 1 (Homo sapiens) (UniProt P11387); test: Inhibition of topoisomerase 1 (unknown origin) assessed as reduction in unwinding of supercoiled pBR322 plasmid DNA by measuring reduction in electrophoretic mobility at 5 to 20 uM incubated for 30 mins by EtBr staining based agarose gel electrophoresis; settings: dose 5-20 µM
T1 sequence (whole entry): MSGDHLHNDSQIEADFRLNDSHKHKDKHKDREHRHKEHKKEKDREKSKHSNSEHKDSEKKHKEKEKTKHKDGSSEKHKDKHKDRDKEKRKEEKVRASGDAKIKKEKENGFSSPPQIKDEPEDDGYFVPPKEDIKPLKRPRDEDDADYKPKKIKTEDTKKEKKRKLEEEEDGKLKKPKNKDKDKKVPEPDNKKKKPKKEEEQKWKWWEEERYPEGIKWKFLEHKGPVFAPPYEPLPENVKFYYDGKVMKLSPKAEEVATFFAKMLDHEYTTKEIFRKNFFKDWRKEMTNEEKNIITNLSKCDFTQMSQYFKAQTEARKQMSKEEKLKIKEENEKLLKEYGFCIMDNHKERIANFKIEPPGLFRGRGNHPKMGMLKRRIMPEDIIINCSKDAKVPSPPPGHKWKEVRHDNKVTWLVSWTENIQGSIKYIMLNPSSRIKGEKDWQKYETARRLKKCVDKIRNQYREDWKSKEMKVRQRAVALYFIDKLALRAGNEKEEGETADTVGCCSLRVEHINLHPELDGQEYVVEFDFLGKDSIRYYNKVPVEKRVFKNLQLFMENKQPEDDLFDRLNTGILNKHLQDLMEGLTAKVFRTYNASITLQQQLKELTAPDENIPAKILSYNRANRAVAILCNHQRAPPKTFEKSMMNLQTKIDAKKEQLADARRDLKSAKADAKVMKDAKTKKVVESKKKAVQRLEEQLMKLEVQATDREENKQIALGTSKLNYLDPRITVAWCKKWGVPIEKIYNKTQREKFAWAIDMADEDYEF

CAPAN-1 = test: Antiproliferative activity against human CAPAN-1 cells assessed as inhibition of cell growth incubated for 72 hrs by MTT assay; format: functional, cell-based; settings: CAPAN-1, 72 h
[15] = Drug uptake in hFB-hTERT6 cells; format: ADME, cell-based; settings: human
Calf thymus DNA [16] = test: Binding affinity to calf thymus DNA assessed as binding constant at 10 uM by fluorescence spectroscopy analysis; format: nucleic-acid assay; settings: Bos taurus
NCI-H1975 = test: Antiproliferative activity against human NCI-H1975 cells assessed as inhibition of cell growth incubated for 72 hrs by MTT assay; format: functional, cell-based; settings: NCI-H1975, 72 h
[17] = Drug uptake in human HCT-116 cells assessed as increase in intracellular accumulation at 2 uM measured after 5 mins by Hoechst 33342 staining based fluorescence confocal microscopic analysis; format: ADME, cell-based; settings: hct-116, 5 min
Z-138 = test: Antiproliferative activity against human Z138 cells assessed as inhibition of cell growth incubated for 72 hrs by MTT assay; format: functional, cell-based; settings: Z-138, 72 h
[18] = Drug localization in lysosome of human HCT-116 cells assessed as appearance of yellow color at 2 uM incubated for 24 hrs by LysoTracker Green staining based fluorescence microscopic analysis; format: ADME, subcellular; settings: hct-116, 24 h
[19] = Drug uptake in human HCT-116 cells assessed as increase in intracellular accumulation at 2 uM measured after 24 hrs by Hoechst 33342 staining based fluorescence confocal microscopic analysis; format: ADME, cell-based; settings: hct-116, 24 h
DNA [20] = test: Binding affinity to pBR322 plasmid DNA (unknown origin) assessed as DNA intercalation by measuring reduction in electrophoretic shift at 5 to 20 uM incubated for 30 mins by EtBr staining based agarose gel electrophoresis; format: nucleic-acid assay; settings: dose 5-20 µM
[21] = Drug localization in nucleus of human HCT-116 cells assessed as appearance of magenta color at 2 uM incubated for 24 hrs by Hoechst 33342 staining based fluorescence microscopic analysis; format: ADME, subcellular; settings: hct-116, 24 h
[22] = Drug localization in mitochondria of human HCT-116 cells assessed as appearance of yellow color at 2 uM incubated for 24 hrs by MitoTracker deep red staining based fluorescence microscopic analysis; format: ADME; settings: hct-116, 24 h

SMILES	pIC50 (HL-60)	pIC50 [2]	logD [5]	Drug uptake [7]	pIC50 (LN-229)	pIC50 (HCT-116 [8])	Activity (HCT-116 [9])	pKd (Calf thymus DNA [10])	Activity (HCT-116 [11])	pIC50 [12]	pIC50 (CAPAN-1)	Drug uptake [15]	Kb (Calf thymus DNA [16])	pIC50 (NCI-H1975)	pIC50 (Z-138)	also measured
N[C@H]1CCN(C(=O)C2Cc3c(O)c4c(c(O)c3C2)C(=O)c2ccccc2C4=O)C1	5.68	5.62	1.56	Active	6.15	5.72	Active	5.54	Active	5.72	6.00	Active	0.35 10^6/M	5.64	5.60	pIC50 (K562): 5.72; Activity (DNA [1]): Dose-Dependent Effect; solubility [3]: 55 mg/mL (≈ 140 mM); Drug uptake [4]: Not Active; IC50 at 72 h [6]: 4200 nM; Drug uptake [13]: Active; inhibition [14]: Active; Drug uptake [17]: Active
COc1cccc2c1C(=O)c1c(O)c3c(c(O)c1C2=O)C[C@@](O)(C(=O)CO)C[C@@H]3O[C@H]1C[C@H](N)[C@H](O)[C@H](C)O1 [DOXORUBICIN]	6.66	6.12	0.3	Active	5.74	6.52	inactive	6.15	inactive	5.38	5.77	Active	1.4 10^6/M	6.21	5.80	Drug uptake [18]: Active; Drug uptake [19]: Active; Activity (DNA [20]): Active; Drug uptake [21]: Active; Drug uptake [22]: Not Active
